SMILES strings stand for the structures.

A short description of the series: Test on solubility to polyethylene glycol (visual check for insoluble luliconazole). In kind it is physicochemical. How it is done:
Examined was how luliconazole is dissolved by polyethylene glycol 200 having an average molecular weight of 190 to 210, polyethylene glycol 300 having an average molecular weight of 285 to 315, polyethylene glycol 400 having an average molecular weight of 380 to 420, and polyethylene glycol 600 having an average molecular weight of 570 to 630, each of which is represented by the formula HOCH2(CH2OCH2)nCH2OH (where n is an integer). To this end, the above polyethylene glycols (manufactured by NOF Corporation) were mixed with luliconazole according to the formulation presented in Table 1 below, and the properties of the solution (presence of insoluble matter (luliconazole)) were visually evaluated.

Regarding `N#C/C(=C1/SC[C@@H](c2ccc(Cl)cc2Cl)S1)n1ccnc1` [luliconazole, (R)-(−)-(E)-[4-(2,4-dichlorophenyl)-1,3-dithiolane-2-ylidene]-1-imidazolylacetonitrile], the solubility for luliconazole result is reported as “highest solubility” (in polyethylene glycol 400 compared to polyethylene glycol 200, 300 and 600); “high solubility” (in polyethylene glycols 200, 300, 400, and 600).
